From US4170640A, “Antibiotic mixtures” (priority 1977, dated 1979) come the findings set out here.

Bounds are passed on as bounds.

For assay [1], the system named is E. coli B. Kind of assay: Amplification of the antibacterial (cell-killing) activity of phleomycin in stationary phase cultures, viable cell counts. As to conditions: concentration of optimum activity after phleomycin pretreatment (2 μg/ml, 30 min, 37°); 120 min treatment. The format is cell-based. The method, then: The ability of the compounds to potentiate the cell-killing effects of phleomycin was measured by the following procedure. Stationary phase cultures of E. coli B, with or without the compounds under test, were resuspended in growth medium containing phleomycin (2 μg/ml) and incubated at 37° for 30 minutes. The cells were then membrane filtered (0.45 μm pore size; 2.5 cms), washed with growth medium (20 μg/ml) and resuspended in growth medium (20 μg/ml) at 37° C. containing various concentrations, between 10^-10 M and 10^-2 M, of the compound under test. As a control, bacteria were exposed to the same range of concentrations of each compound but without the phleomycin pretreatment. To determine viable cell numbers aliquots were taken from each cell suspension after 120 minutes treatments, plated on agar medium and incubated overnight at 37° C. All operations with amplifying agents were carried out in near dark conditions.
Compounds were designated as active when the increase in activity with the combined treatment was greater than could be explained by the effects of the two compounds when administered separately.

Assay [2] deals with Walker rat carcinoma 256. Kind of assay: Survival of rats bearing Walker rat carcinoma 256 ascites tumour, treated with phleomycin plus amplifier. The format is in vivo, Sprague Dawley rats. As to conditions: for amplification of the activity of phleomycin (survival of tumour-bearing rats): doses as in Table 2. The method, then:
Walker rat carcinoma 256 as the ascites form was passaged in female Sprague Dawley rats. […] Intraperitoneal injections of 0.1 ml (10^6 viable cells) of the suspension were then made into test groups of 6-8 male Sprague Dawley rats.
Phleomycin dissolved in phosphate-buffered saline was given to animals in the test groups as 0.1 ml intraperitoneal injections twice daily; each injection was followed by a 0.1 ml intraperitoneal injection of the prospective amplifier. The treatments were given for 5-10 days, at varying concentrations of the phleomycin and amplifier.
The method of evaluating the effectiveness of the various treatments was based on those used in the screening programme of the Drug Evaluation Branch, National Cancer Institute, National Institute of Health, Bethesda, Maryland, U.S.A. (Cancer Chemotherapy Reports, Vol. 3, No. 2, September 1972). Thus the effectiveness of the drug treatment was measured by the increased survival time, measured in days, of the treated animals over control ones which received no drugs. Dead animals were counted daily, and median survival times (MST) calculated for all groups. […] The ratios (test group median survival time) divided by (control group median survival time)× 100 (T/C) were calculated for all the test groups.

Assay [3] concerns E. coli B. Briefly: Amplification of the antibacterial (cell-killing) activity of phleomycin in stationary phase cultures, viable cell counts. The format is cell-based. As to conditions: envisaged from present studies; phleomycin at about 1 mg/l (or mg/kg).
[4] abbreviates: 4,4'-bis(trimethylammonio)diphenylmethane dichloride 270 MKD alone (phleomycin 0), ×2 daily.
Setting [5] is: phleomycin 4 MKD + 4,4'-bis(trimethylammonio)diphenylmethane dichloride 270 MKD, i.p. ×2 daily.
[6] abbreviates: Auramin 0 7.6 MKD alone (phleomycin 0), ×2 daily.
Setting [7] is: phleomycin 8 MKD + Auramin 0 7.6 MKD, i.p. ×2 daily.
Where [8] appears, read: Brilliant Green 640 MKD alone (phleomycin 0), ×2 daily.
[9] abbreviates: phleomycin 5 MKD + Brilliant Green 640 MKD, i.p. ×2 daily.
Where [10] appears, read: phleomycin 10 MKD + Brilliant Green 640 MKD, i.p. ×2 daily.
Where [11] appears, read: phleomycin 20 MKD + Brilliant Green 640 MKD, i.p. ×2 daily.
Where [12] appears, read: Crystal Violet 0.5 MKD alone (phleomycin 0), twice daily from days 2 to 10.
The mark [13] stands for this setting: phleomycin 4 MKD + Crystal Violet 0.5 MKD, i.p. twice daily from days 2 to 10.
Where [14] appears, read: Malachite Green 52 MKD alone (phleomycin 0), ×2 daily.
The mark [15] stands for this setting: phleomycin 8 MKD + Malachite Green 52 MKD, i.p. ×2 daily.
[16] abbreviates: Neutral Red 20 MKD alone (phleomycin 0), ×2 daily.
Where [17] appears, read: phleomycin 8 MKD + Neutral Red 20 MKD, i.p. ×2 daily.
Setting [18] is: phleomycin 16 MKD + Neutral Red 20 MKD, i.p. ×2 daily.
The mark [19] stands for this setting: phleomycin 32 MKD + Neutral Red 20 MKD, i.p. ×2 daily.

On to `C[N+](C)(C)c1ccc2cc3ccc([N+](C)(C)C)cc3c(-c3c4cc([N+](C)(C)C)ccc4cc4ccc([N+](C)(C)C)cc34)c2c1.[Cl-].[Cl-].[Cl-].[Cl-]` [2,2', 7,7'-tetrakis(trimethylammonio)-9,9'-dianthracene tetrachloride], for which the “Optimum Concentration tested” value in assay [1] amounted to 50 µM.
Take `Nc1cc2nc3ccccc3oc-2cc1=O` [2-aminophenoxazone]: the “Optimum Concentration tested” value in assay [1] stood at 25 µM.
As for `CC[n+]1c(C=Cc2ccc(N(C)C)cc2)ccc2ccccc21.[Cl-]` [2-p-dimethylaminostyryl-N-ethyl-quinolinium chloride], the “Optimum Concentration tested” value in assay [1] was found to be 0.3 µM.
As to `C[N+](C)(C)c1ccc(-c2ccc([N+](C)(C)C)cc2)cc1.[Cl-].[Cl-]` [4,4'-bis(trimethylammonio)diphenyl-dichloride], the “Optimum Concentration tested” value in assay [1] is 310 µM.
On to `C[N+](C)(C)c1ccc(Cc2ccc([N+](C)(C)C)cc2)cc1` [4,4'-bis(trimethylammonio)diphenylmethane], for which the “Optimum Concentration tested” value in assay [1] was found to be 29 µM. Besides, the MST is given as 8.0 days in assay [2] (setting [4]) and 10.0 days in assay [2] (setting [5]). In addition, the figures for the T/C in assay [2] (setting [4]) and in assay [2] (setting [5]) were 100 and 125, respectively. The “amplification of the activity of phleomycin (survival of tumour-bearing rats)” value (“amplification” below) in assay [2] was “amplified the activity of phleomycin”. In addition, the “adequate concentration of amplifier in conjunction with phleomycin” value (shortened to “adequate concentration of amplifier”) in assay [3] is given as 10^-3 molar.
Take `CN(C)c1ccc(C(=N)c2ccc(N(C)C)cc2)cc1.Cl` [Auramin O]: the “Optimum Concentration tested” value in assay [1] was 3.3 µM. Moreover, the results for the MST in assay [2] (setting [6]) and in assay [2] (setting [7]) were 9.5 days and 18 days, respectively. Further, the T/C was 95 in assay [2] (setting [6]) and above 180 in assay [2] (setting [7]). Besides, the “amplification” value in assay [2] is listed as “amplified the activity of phleomycin”.
With `CCN(CC)c1ccc(C(=C2C=CC(=[N+](CC)CC)C=C2)c2ccccc2)cc1.O=S(=O)([O-])O` [Brilliant Green], in assay [1], the “Optimum Concentration tested” value worked out at 9.6 µM. Besides, the MST in assay [2] (setting [8]) was determined as 9 days; in assay [2] (setting [9]), 10 days; in assay [2] (setting [10]) it was 11 days; in assay [2] (setting [11]) it was 11 days. The T/C was determined as 112 in assay [2] (setting [8]), 125 in assay [2] (setting [9]), 138 in assay [2] (setting [10]) and 138 in assay [2] (setting [11]). Moreover, the “amplification” value in assay [2] is “amplified the activity of phleomycin”.
`CN(C)c1ccc(C(=C2C=CC(=[N+](C)C)C=C2)c2ccc(N(C)C)cc2)cc1` [Crystal Violet]: in assay [1], the “Optimum Concentration tested” value worked out at 2.4 µM. For the same compound, in assay [2] (setting [12]), the MST worked out at 12.5 days and the T/C came out at 104. The “amplification” value in assay [2] is on record as “amplified the activity of phleomycin”. For the same compound, in assay [2] (setting [13]), the MST was above 30 days and the T/C is listed as 250. Also, in assay [3], the “adequate concentration of amplifier” value is reported as 10^-7 molar.
In the case of `CC[n+]1c(-c2ccccc2)c2cc(N)ccc2c2ccc(N)cc21.[Br-]` [Ethidium bromide], the “Optimum Concentration tested” value in assay [1] came to 13 µM. In addition, the “adequate concentration of amplifier” value in assay [3] is reported as 10^-4 molar.
On to `CN(C)c1ccc(C(=C2C=CC(=[N+](C)C)C=C2)c2ccccc2)cc1.[Cl-]` [Malachite green], for which, in assay [1], the “Optimum Concentration tested” value was 3 µM. Also, in assay [2] (setting [14]), the MST is on record as 8 days and the T/C is 100. For the same compound, the “amplification” value in assay [2] is listed as “amplified the activity of phleomycin”. Moreover, in assay [2] (setting [15]), the MST is on record as 16.5 days and the T/C is recorded as 206.
Turning to `CN(C)c1ccc2nc3ccc(=[N+](C)C)cc-3sc2c1.[Cl-]` [Methylene Blue], in assay [1], the “Optimum Concentration tested” value worked out at 13 µM.
On to `Cc1cc2nc3ccc(N(C)C)cc3nc2cc1N.Cl` [Neutral Red], for which the “Optimum Concentration tested” value in assay [1] was determined as 33 µM. Moreover, the “enhancement of the ability of phleomycin to prolong the survival of rats carrying tumours” value in assay [2] (Neutral Red 20 μg/kg/day with phleomycin at 8, 16 or 32 micrograms/kg/day) was “active”. Besides, the MST in assay [2] (setting [16]) is recorded as 11.0 days; in assay [2] (setting [17]), 20 days; in assay [2] (setting [18]), above 30 days; in assay [2] (setting [19]), above 30 days. Also, the T/C in assay [2] (setting [16]) is 79; in assay [2] (setting [17]), 143; in assay [2] (setting [18]), above 214; in assay [2] (setting [19]), above 214.
Consider `CC[N+](CC)=c1ccc2nc3c(cc(N)c4ccccc43)oc-2c1` [Nile Blue], for which the “Optimum Concentration tested” value in assay [1] was found to be 2.7 µM.
For the compound `CN(C)c1ccc2cc3ccc(=[N+](C)C)cc-3oc2c1.[Cl-]` [Pyronin Y], in assay [1], the “Optimum Concentration tested” value stood at 170 µM.
Turning to `CCN(CC)CCCC(C)Nc1c2ccc(Cl)cc2nc2ccc(OC)cc12` (stereo not shown) [Quinacrine], in assay [1], the “Optimum Concentration tested” value was 39 µM.
For the compound `CCNc1ccc2c(-c3ccccc3C(=O)O)c3ccc(=[N+](CC)CC)cc-3oc2c1.[Cl-]` [Rhodamine G], the “Optimum Concentration tested” value in assay [1] stood at 120 µM.
Take `Cc1cc2nc3cc(C)c(N)cc3[n+](-c3ccccc3)c2cc1N.[Cl-]` [Safranin T]: in assay [1], the “Optimum Concentration tested” value stood at 14 µM.
`Cc1cc2nc3ccc(N(C)C)cc3[s+]c2cc1N.[Cl-]` [Toluidine Blue]: in assay [1], the “Optimum Concentration tested” value is 16 µM.
On the same count and under the same terms, the same measure for Brilliant Cresol Blue: 340 µM; for Methyl Violet: 1.6 µM.
